Results from US8058242B2, “Chimeric proteins with natriuretic activity” (The University of Queensland, priority 2004, dated 2011).

What was measured:
[1] = tested on: endothelium-intact aortic rings (NPR-C mediated); assay: Aortic ring relaxation, endothelium-intact rings pre-contracted with 40 mM KCl (Example 3); design: species or system rat; details: endothelium-intact rat aortas pre-contracted with 40 mM KCl; peptide 0.1 μM
conscious rabbits = assay: Blood pressure and heart rate in conscious rabbits, intravenous infusion dose-response (Example 8); design: Systolic BP, mean difference / Diastolic BP, mean difference / Mean BP, mean difference / HR, mean difference: dose or concentration left out as unconfirmed; details: for Diastolic BP, mean difference from control / HR, mean difference from control / Mean BP, mean difference from control / Systolic BP, mean difference from control: 45 min
[2] = molecular target: T1, Natriuretic Peptide Receptor-A (NPR-A) signaling in MDCK cells (Canis lupus familiaris, UniProt A0A8I3MHU3); type: cell-based, canine; details: stimulation of cGMP accumulation in MDCK cells
T1 sequence (A0A8I3MHU3 32-1060): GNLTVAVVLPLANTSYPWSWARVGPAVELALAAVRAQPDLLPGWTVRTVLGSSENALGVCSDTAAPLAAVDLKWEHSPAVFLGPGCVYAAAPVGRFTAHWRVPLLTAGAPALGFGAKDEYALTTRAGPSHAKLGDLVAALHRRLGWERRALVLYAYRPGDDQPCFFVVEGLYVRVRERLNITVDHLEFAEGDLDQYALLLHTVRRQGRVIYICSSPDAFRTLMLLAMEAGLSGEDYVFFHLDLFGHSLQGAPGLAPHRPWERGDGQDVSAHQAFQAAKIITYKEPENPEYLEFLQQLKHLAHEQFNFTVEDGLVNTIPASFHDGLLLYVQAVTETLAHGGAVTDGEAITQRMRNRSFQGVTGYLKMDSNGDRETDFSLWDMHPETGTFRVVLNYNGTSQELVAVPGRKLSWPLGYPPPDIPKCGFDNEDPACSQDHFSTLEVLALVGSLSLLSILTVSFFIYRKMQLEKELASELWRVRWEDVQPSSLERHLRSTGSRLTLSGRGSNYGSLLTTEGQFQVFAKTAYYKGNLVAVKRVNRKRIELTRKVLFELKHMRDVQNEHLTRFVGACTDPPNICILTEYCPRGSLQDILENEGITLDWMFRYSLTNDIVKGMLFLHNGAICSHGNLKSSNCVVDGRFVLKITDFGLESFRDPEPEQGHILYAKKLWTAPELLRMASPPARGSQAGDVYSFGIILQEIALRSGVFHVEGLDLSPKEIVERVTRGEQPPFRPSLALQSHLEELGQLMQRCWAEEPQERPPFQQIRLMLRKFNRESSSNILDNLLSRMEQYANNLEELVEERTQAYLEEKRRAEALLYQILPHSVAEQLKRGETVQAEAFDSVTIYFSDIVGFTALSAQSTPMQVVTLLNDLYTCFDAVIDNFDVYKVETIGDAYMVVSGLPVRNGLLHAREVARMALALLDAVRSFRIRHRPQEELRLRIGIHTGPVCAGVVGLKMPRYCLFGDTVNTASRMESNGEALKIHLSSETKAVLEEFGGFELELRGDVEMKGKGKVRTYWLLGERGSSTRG

[3] = tested on: endothelium-denuded aortic rings (GC-A mediated); assay: Aortic ring relaxation, endothelium-denuded rings pre-contracted with 40 mM KCl (Example 3); design: species or system rat; details: endothelium-denuded rat aortas pre-contracted with 40 mM KCl; peptide 0.1 μM
Plasmin = molecular target: T2, Plasmin (Homo sapiens, UniProt P00747); assay: Stability to enzymatic degradation by plasmin (Examples 7, 16); type: in vitro ADME; details: plasmin, 37° C.
T2 construct: with 500 ng Endopeptidase (NEP) or 10 μg Plasmin
Method in brief: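 Peptide (100 μl of 500 μM) was incubated at 37 °C in 100 mM Tris/HCl, 150 mM NaCl, pH 7.2-7.4 with 500 ng NEP or 10 μg plasmin. Samples were taken from 5 min to 24 h and heat-quenched at 100 °C for 4 min. Remaining peptide was measured by RP-HPLC.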

[4] = Table 9B, average of doses 1, 2, 4
[5] = average of the 3 doses 1.0, 2.0, 4.0 μg/kg/min

T2 sequence (P00747 97-580 partner limits assumed, species assumed): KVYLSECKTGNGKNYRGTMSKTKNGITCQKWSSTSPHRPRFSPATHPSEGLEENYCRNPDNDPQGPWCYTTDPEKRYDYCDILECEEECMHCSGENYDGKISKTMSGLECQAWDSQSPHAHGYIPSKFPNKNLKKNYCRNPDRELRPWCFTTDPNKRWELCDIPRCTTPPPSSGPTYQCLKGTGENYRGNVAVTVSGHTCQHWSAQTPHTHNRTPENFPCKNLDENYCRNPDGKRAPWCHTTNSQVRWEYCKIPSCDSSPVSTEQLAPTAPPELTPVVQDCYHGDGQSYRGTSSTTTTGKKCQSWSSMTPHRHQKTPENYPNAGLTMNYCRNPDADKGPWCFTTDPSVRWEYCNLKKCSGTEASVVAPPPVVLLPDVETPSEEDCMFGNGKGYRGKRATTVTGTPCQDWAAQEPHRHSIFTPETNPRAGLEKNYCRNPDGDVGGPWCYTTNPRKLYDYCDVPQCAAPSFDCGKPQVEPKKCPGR
T2 sequence (P00747 581-810 limits assumed, species assumed): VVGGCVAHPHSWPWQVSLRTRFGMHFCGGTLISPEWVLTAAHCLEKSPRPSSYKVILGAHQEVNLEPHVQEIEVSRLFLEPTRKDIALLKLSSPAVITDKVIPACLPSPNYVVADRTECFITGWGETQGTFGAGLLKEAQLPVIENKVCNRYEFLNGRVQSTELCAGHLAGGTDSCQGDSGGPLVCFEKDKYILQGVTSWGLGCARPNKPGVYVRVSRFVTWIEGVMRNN

## CC[C@H](C)[C@@H]1NC(=O)[C@H](CCCNC(=N)N)NC(=O)[C@H](CC(=O)O)NC(=O)[C@H](CCSC)NC(=O)[C@H](CCCNC(=N)N)NC(=O)CNC(=O)CNC(=O)[C@H](Cc2ccccc2)NC(=O)[C@@H](NC(=O)[C@H](CO)NC(=O)[C@H](CO)NC(=O)[C@H](CCCNC(=N)N)NC(=O)[C@H](CCCNC(=N)N)NC(=O)[C@H](CC(C)C)NC(=O)[C@@H](N)CO)CSSC[C@@H](C(=O)N[C@@H](CC(N)=O)C(=O)N[C@@H](CO)C(=O)N[C@@H](Cc2ccccc2)C(=O)N[C@@H](CCCNC(=N)N)C(=O)N[C@@H](Cc2ccc(O)cc2)C(=O)O)NC(=O)CNC(=O)[C@H](CC(C)C)NC(=O)CNC(=O)[C@H](CO)NC(=O)[C@H](CCC(N)=O)NC(=O)[C@H](C)NC(=O)CNC1=O [hANP, reference compound]
[1]
  percentage relaxation of the precontraction by KCl: ~100%
Conscious rabbits; Table 9B, Dose 1
  Diastolic BP, mean difference: −9.7 mmHg
  HR, mean difference: 17 bpm
  Mean BP, mean difference: −13.1 mmHg
  Systolic BP, mean difference: −10.6 mmHg
Conscious rabbits; Table 9B, Dose 2
  Diastolic BP, mean difference: −12.3 mmHg
  HR, mean difference: 19 bpm
  Mean BP, mean difference: −15.7 mmHg
  Systolic BP, mean difference: −13.0 mmHg
Conscious rabbits; Table 9B, Dose 4
  Diastolic BP, mean difference: −14.4 mmHg
  HR, mean difference: 9 bpm
  Mean BP, mean difference: −18.5 mmHg
  Systolic BP, mean difference: −14.5 mmHg
Conscious rabbits; [4]
  Diastolic BP, Average Response SED: −12.1 ± 0.8 mmHg
  HR, Average Response SED: 15 ± 3 bpm
  Systolic BP, Average Response SED: −12.7 ± 0.9 mmHg
Conscious rabbits; after 1 hour recovery period, Table 10A
  Recovery (MAP): 59.2 mm Hg
Conscious rabbits; after 1 hour recovery period, Table 10A, listed as WT-hANP
  Recovery Delta SED (MAP): 5.0±1.2 mm Hg
Conscious rabbits; [5]
  Diastolic BP, Average Response SED: −12.1 ± 0.8 mmHg
  HR, Average Response SED: 15.1 ± 3.2 bpm
  Systolic BP, Average Response SED: −12.7 ± 0.9 mmHg
Conscious rabbits; highest dose, Table 10A
  MAP at final dose: 54.2 mm Hg
Conscious rabbits; highest dose, Table 10A, groups 1, 2A and 3
  Treatment Effect, change of mean blood pressure during the infusion: −18.5 mm Hg
Conscious rabbits; i.v. infusion 1.0 μg/kg/min
  Diastolic BP, mean difference from control: −9.7 mmHg
  HR, mean difference from control: 17.1 bpm
  Mean BP, mean difference from control: −13.1 mmHg
  Systolic BP, mean difference from control: −10.6 mmHg
Conscious rabbits; i.v. infusion 2.0 μg/kg/min
  Diastolic BP, mean difference from control: −12.3 mmHg
  HR, mean difference from control: 19.0 bpm
  Mean BP, mean difference from control: −15.7 mmHg
  Systolic BP, mean difference from control: −13.0 mmHg
Conscious rabbits; i.v. infusion 4.0 μg/kg/min
  Diastolic BP, mean difference from control: −14.4 mmHg
  HR, mean difference from control: 9.0 bpm
  Mean BP, mean difference from control: −18.5 mmHg
  Systolic BP, mean difference from control: −14.5 mmHg
[2]
  −Log10 EC50 (pEC50) ± Standard Error: 8.792 ± 0.2718
[2]; read-out: EC50 (M) ± Standard Error
  EC50: 1.64e-08 M
[3]
  percentage relaxation of the precontraction by KCl: ~100%
Plasmin; plasmin in Tris/HCl-NaCl buffer, read-out: HalfLife in plasmin
  half-life at 125 μM: 2.03 min
Plasmin
  K (one phase exponential decay, best fit values): 0.3413
  PLATEAU (one phase exponential decay, best fit values): 0.04207
  SPAN (one phase exponential decay, best fit values): 0.9579
